Data on five compounds can be found in patent US10689526B2, “N-halamines compounds as multifunctional additives” (BOARD OF REGENTS, THE UNIVERSITY OF TEXAS SYSTEM, priority 2005, dated 2020).

Data set [1] is described as follows: DSC and TGA thermal analysis of Cl-BTMP. The format is physicochemical.
The nature of the next data set: Solubility in water. The format is physicochemical.
Data set [2] concerns Escherichia coli (E. coli, ATCC 15597, gram-negative). Briefly: Antimicrobial activity of CADMH in aqueous suspension. The class given is cell-based. The conditions noted are these: for contact time for a total kill of 10^8-10^9 CFU/mL of E. coli: 500 ppm of active chlorine content; for % of kill of E. coli / log reduction of E. coli: 1000 ppm of active chlorine content. On the procedure:
(§1) In other examples to evaluate antimicrobial activities of CADMH, Escherichia coli (e.g., E. coli, ATCC® 15597™, gram-negative) and Staphylococcus aureus subsp. aureus (e.g., S. aureus, ATCC® 6538™, gram-positive) were used as model microorganisms to challenge the antimicrobial functions of the samples. In the microbial studies, the bacteria were grown in broth solutions (e.g., LB broth for E. coli; Tryptic Soy broth for S. aureus) overnight at 37° C. Cells were harvested in a centrifuge, washed twice with phosphate buffered saline (e.g., PBS, OmniPur®, NaCl, 8.0 g/L; KCl, 0.20 g/L; Na2HPO4, 1.42 g/L; KH2PO4, 1.36 g/L; pH 7.4), re-suspended in PBS, and then diluted to concentrations of 10^8-9 CFU/mL. A known amount of CADMH (particle size: 60-80 mesh) was dispersed in 10 mL of sterilized distilled water. The mixture was vortexed and then sonicated for 10 minutes. Then, 100 μL of the bacteria suspension were added into the CADMH-containing suspension and the resultant mixture was vortexed for 60 seconds. After a certain period of contact time under constant shaking, the mixture was poured into 90 mL of 0.03 wt % sterilized sodium thiosulfate aqueous solution to quench the active chlorine and stop the antimicrobial test. […] The resulting solutions were vortexed for 2 minutes and then serially diluted, and each dilution was placed onto LB agar (for E. coli) or Tryptic soy agar (for S. aureus). The same procedure was also applied to the correspondent unchlorinated samples as controls. Bacterial colonies on the plates were counted after incubation at 37° C. for 24 hours.

The subject of data set [3] is Staphylococcus aureus subsp. aureus (S. aureus, ATCC 6538, gram-positive). The data set is described as above. The format is cell-based. The settings on record: for contact time for a total kill of 10^8-10^9 CFU/mL of S. aureus: 500 ppm of active chlorine content. The method, then:
as §1

For a further data set, the system named is S. epidermidis. Nature of the data set: Anti-biofilm functions of N-halamine-containing samples (recovered bacteria, SEM). The conditions noted are these: polyurethane samples containing 4% additive, three days of immersion in S. epidermidis. The class given is cell-based. The method, then:
Preparation of N-halamine-containing materials. In one example, a predetermined amount of Cl-ODDMH (e.g., 1%, 2% and 4% to PU) was added into 5% polyurethane (Noveon) solutions in THF under constant stirring to from a clear solution. The solution was cast onto Teflon sheets in a fume hood at room temperature for 2 days to produce thin films (e.g., 170±10 μm of thickness). The films were further dried under vacuum at 50° C. for 3 days. Cl-ODDMH-containing PU sheets (e.g., 4×4 cm) or discs (e.g., 0.5 cm of diameter) were cut sterilely from the films. Pure PU sheets or discs were prepared under the same conditions as controls.
Anti-biofilm functions. The samples were immersed individually in sealed tubes containing 5 mL of S. epidermidis broth suspension (10^6-10^7 CFU/mL of bacteria) in a shaking water bath at 37° C. and 30 RPM. […] The solution was serially diluted, and 100 μL of each dilution was plated onto agar plates. The same procedure was applied to the untreated samples as controls. Bacterial colonies were counted after incubation at 37° C. for between about 24 and 48 hours. SEM studies were used to confirm the biofilm controlling function. PU discs with or without the presence of Cl-ODDMH were immersed in 5 mL 10^6-10^7 CFU/mL of S. epidermidis broth suspensions in a water bath at 37° C. and 30 RPM. […]

A further data set deals with E. coli. Nature of the data set: Antimicrobial activity of CADMH-containing PS or HDPE films (sandwich test). The class given is cell-based. On the procedure: Preparation of CADMH-containing polymeric materials. PS and HDPE were used as the model polymers to preliminarily evaluate the antimicrobial activities of CADMH as additives. In the preparation of CADMH-containing PS films, a certain amount of CADMH was dissolved in 5% PS solutions in THF. The solution was poured onto glass slides. The glass slides were put in a fume hood for 2 days at room temperature to evaporate most of the solvent, and then further dried in a vacuum oven at 30° C. for 3 days to obtain polymer films (100±10 μm of thickness). To prepare CADMH-containing HDPE films, a predetermined amount of CADMH was added into 5% HDPE solutions in hot o-xylene under constant stirring. After evaporation of the solvent, polymer films having a thickness of about 70±5 μm were obtained by hot pressing at 140° C. for 15 seconds. The chlorine contents of the CADMH-containing PS and HDPE films were determined by iodimetric titration, as described above. Pure PS or HDPE films without the presence of CADMH were prepared using the same procedures as controls.
Antimicrobial activity of CADMH-containing polymers. In the antimicrobial tests of CADMH-containing PS or HDPE films, 10 μL of E. coli suspensions (e.g., 10^8-10^9 CFU/mL) were placed onto the surface of a film (e.g., 4×4 cm). The film was then covered with another identical film. A 100 grams weight was added onto the whole “sandwich” to ensure sufficient contact. At different contact time, the “sandwich” was transferred into 10 mL of 0.03 wt % sodium thiosulfate aqueous solution to quench the active chlorine of the samples. The mixture was sonicated for 20 minutes and vortexed for 60 seconds to remove the adherent bacteria into the solution. The resultant solution was serially diluted, and each dilution was placed onto LB agar plates. The same procedure was also applied to the pure PS or HDPE films as controls. Bacterial colonies were counted after 24 hours of incubation at 37° C.

Data set [4] in a line: Storage stability, active chlorine content by iodimetric titration. The settings on record: PS and HDPE films, storage for 4 months at 23±2° C. and 70±5% RH. The format is physicochemical. The method, then:
After storage for about 4 months under ambient conditions (e.g., 23±2° C., 70±5% RH), all the samples retained more than 96% of their original chlorine contents. The antimicrobial functions were tested monthly during the storage period, and after 4 months of storage, the minimum contact time of the samples for a total kill of 10^8-10^9 CFU/mL of E. coli or S. aureus was unchanged.

Data set [5] in a line: Thermal properties by DSC. The format is physicochemical. The method, then:
Thermal properties of the samples were examined with DSC, and the representative DSC curves are shown in FIG. 6 using DCSDMH and Cl-DCSDMH as examples. […] After chlorination, the N—H bond in DCSDMH is transformed into N—Cl group, and because of the lack of hydrogen bonding, the melting point of Cl-DCSDMH decreases to 52.4° C.
On the technique in general: In DSC, transitions show as peaks or steps in heat flow.

Setting [6] is: 1000 ppm active chlorine content.
Setting [7] is: 1000 ppm of active chlorine content, 5 minutes of contact.

`CC1(C)CC(OC(=O)CCCCCCCCC(=O)OC2CC(C)(C)N(Cl)C(C)(C)C2)CC(C)(C)N1Cl` [Cl-BTMP, bis(N-chloro-2,2,6,6-tetramethyl-4-piperidinyl) sebacate]: the “thermally stable up to” value in data set [1] was “up to 200 °C”.

For the compound `CCN1C(=O)N(Cl)C(C)(C)C1=O` [Cl-EDMH], the solubility in water result in the data set “Solubility in water” (23° C.) is “ca. 3 g/L”. For the same compound, the “contact time for a total kill of 10^8-10^9 CFU/mL of E. coli” value (from here on “contact time for a total kill … of E. coli”) in data set [2] was “less than 5 minutes”. In addition, in data set [2] (setting [6]), the “contact time for total kill of E. coli” value is on record as “less than 5 minutes”. The “contact time for a total kill of 10^8-10^9 CFU/mL of S. aureus” value in data set [3] was “less than 5 minutes”. Besides, the “contact time for total kill of S. aureus” value in data set [3] (setting [6]) is given as “less than 5 minutes”.

Consider `CCCCCCCCCCCCCCCCCCN1C(=O)N(Cl)C(C)(C)C1=O` [Cl-ODDMH], for which the “bacteria recovered from the samples” value in the data set with S. epidermidis was “less than 50 CFU/cm^2”.

On to `CCCCCCCCCCCCCCCCCCCCCCN1C(=O)N(Cl)C(C)(C)C1=O` [Cl-DCSDMH], for which, in “Solubility in water”, the “solubility in water (in words)” value is on record as “insoluble”. The “contact time for a total kill … of E. coli” value in the data set with E. coli (1% additive in HDPE films) is 4 hours; in the data set on E. coli (1% additive in PS films), 4 hours; in data set [2], 60 minutes. In the data set on E. coli (PS and HDPE films, storage for 4 months at 23±2° C. and 70±5% RH), the “antimicrobial activities of the films after storage” value was “no changes”. For the same compound, the “active chlorine contents of the films after storage” value in data set [4] is given as “no changes”. For the same compound, the “exothermic peak in the DSC curve (decomposition of the N—Cl bond)” value in data set [5] was 176.0 °C. The “contact time for a total kill of 10^8-10^9 CFU/mL of S. aureus” value in data set [3] was 60 minutes.

As for `CCCCCCN1C(=O)N(Cl)C(C)(C)C1=O` [Cl-HDMH], in “Solubility in water”, the “solubility in water (in words)” value is on record as “insoluble”. The “contact time for a total kill … of E. coli” value in data set [2] came out at 30 minutes. Further, in data set [2] (5 minutes of contact), the “% of kill of E. coli” value was found to be 99% and the “log reduction of E. coli” value is given as 2 log. For the same compound, in data set [2] (contact time 15 minutes), the “% of kill of E. coli” value worked out at 99.999% and the “log reduction of E. coli” value amounted to 5 log. The “contact time for a total kill of 10^8-10^9 CFU/mL of S. aureus” value in data set [3] turned out to be 30 minutes. For the same compound, in data set [3] (setting [7]), the “% of kill of S. aureus” value stood at 100% and the “log reduction of S. aureus” value was determined as 7 log. Moreover, the “log reduction of S. aureus” value in data set [3] (1000 ppm of active chlorine content, contact time 15 minutes) turned out to be 8 log.
